This experiment deals with T1, CT-L activity of the proteasome in MCF-7 human breast cancer cells (Homo sapiens, UniProt P20618+P28074).
T1 construct: endogenous in cells; host or cells: MCF-7
In words: Proteolytic activity in cell lysates of treated intact MCF-7 cells. Format: cell-based. To be noted: intact cells treated 16 h, CT-L measured in cell lysates; two determinations where two values. On the procedure: Human MCF-7 breast cancer cells were cultured in DMEM medium containing 10% fetal calf serum (FCS) and 100 units/ml of penicillin and 100 μg/ml of streptomycin. Cells were maintained at 37° C. in a humidified incubator in an atmosphere of 5% CO2. Cells were treated with different concentrations of PI-083, YG1-080, YG1-075, HL2-090-2, HL2-090-4, HL2-090-6, and HL2-090-9 or vehicle control (DMSO) for 16 h.
Intact cells were treated with compounds and lysates prepared as described above. Cell lysates (5 μg) was incubated with 20 μM Suc-Leu-Leu-Val-Tyr-AMC for the CT-L activity for 1 h at 37° C. in 100 μl of assay buffer (50 mM Tris-HCl, pH 7.6). After incubation, production of hydrolyzed 7-amido-4-methyl-coumarin (AMC) groups was measured using a WALLAC Victor^2 1420 Multilabel Counter with an excitation filter of 355 nm and an emission filter of 460 nm (Perkin Elmer Life Sciences, Turku, Finland).

pIC50: −log10 of the molar value. Where “and” joins values, the source holds several entries; their conditions need not be identical. Equal entries are not always repeated.

As to `O=C1C(Cl)=C(Nc2ccc(S(=O)(=O)Nc3ccccn3)cc2)C(=O)c2ccccc21` [PI-083, 4-(3-chloro-1,4-dioxo-1,4-dihydronaphthalen-2-ylamino)-N-(pyridin-2-yl)benzenesulfonamide], the pIC50 (commonly the negative decadic logarithm of the IC50, by convention in mol/L) is 5.21 and 5.25.

For the origin of these results see patent publication US8673910B2, “Proteasome inhibitors for selectively inducing apoptosis in cancer cells” (H. Lee Moffitt Cancer Center and Research Institute, priority 2008, dated 2014).
